Assay results taken from patent publication US20060229255A1, “Identification of n-alkylglycine trimers for induction of apoptosis” (priority 2003, published 2006).

Assays:
pRb, p21Cip1, p27Kip1 = experiment: Western blot of G0/G1 checkpoint proteins in HT29 cells; format: cell-based, human; settings: for pRb levels compared to controls: HT29, after 24 h in culture
Protocol: Western blotting. Floating and adherent cells were harvested and pellets were resuspended in RIPA buffer (50 mM Tris/HCl 7.4, 250 mM NaCl, 0,5% Igepal CA630, 5 mM EDTA, 1 mM PMSF, 10 μg/ml leupeptin, 50 mM NaF, 0.1 mM Na3VO4) or Deoxycholate buffer (10 mM phosphate buffer 7.4, […] NaCl, 0.5% Deoxycholate, 1% Igepal, 0.1% SDS, 1 mM PMSF). Protein concentration was determined with BCA Protein Assay Kit (Pierce) for RIPA extracts or Bradford assay (BioRad) for Deoxycholate extracts. Total protein (20-30 μg/lane) were separated by SDS-PAGE, transferred to PVDF membranes (Gellman), and probed with antibodies against Bcl-xL (Transduction); Bax (Santa Cruz); JNK (Santa Cruz); phospho-JNK (Cell Signaling); pRb (Pharmingen); pRb-phospho Ser780 (Cell Signalling); p130 (Santa Cruz); p107 (Santa Cruz); Cdk2 (Santa Cruz); p27^Kip1 (Santa Cruz); p21^Cip1 (Santa Cruz); actin (Sigma); or tubulin (ICN) and developed with ECL system (AmershamPharmacia biotech)
FIG. 8. Expression of protein involved in G0/G1 checkpoint. (A.) HT29 cells were treated for 1, 3, 6 and 24 h with N10-13-10C (40 μM) or N13-13-10C (35 µM), harvested and immunoblotted to assess total pRb levels or Cdk4 specific phosphorylation at pRb-Ser^780 (PpRb). Western blot was first probed with the pRb-Ser^780 phosphorylation specific antibody, was stripped and reprobed with the pan-pRb antibody and tubulin to normalize total protein level. (B.) T98 g cells were synchronized by serum starvation and reinitiated with 10% FCS and DMSO (C), N13-13-10C (100 μM) or Taxol (30 nM) for 15, 17, 24 or 29 h. Western blot of total protein extracts was probed with antibodies to p130, pRb, p107, Cdk2, cycA, p27, p21 and actin. Unphosphorylated, hypophosphorylated as well as hyperphosphorylated pRb are detected (arrows). (C.) HT29 cells treated for 24 and 48 h with N13-13-10C (40 μM) or DMSO as control. Immunoblots were stained with antibodies to Cdk2, cycA, p21, p27 and actin.

[1] = test system: HT29 human colon adenocarcinoma cells; experiment: Cellular proliferation assay (MTT); format: cell-based; settings: for IC50: HT29, MTT assay after 72 h, read-out: IC50 proliferation inhibition; for Anti-proliferative effect in combination with serial dilutions of Taxol versus Taxol alone: HT29, compound at its IC50, 72 h; for Effect of Taxol on the compound's proliferation inhibition: HT29, with low dose of Taxol (11 nM), 72 h
Text: For screening of the peptoid library containing 10.648 compounds, controlled mixtures of trimers of N-alkylglycine oligomer molecules (peptoid) have been used and constructed under […] positional scanning formats. Chemical diversity was introduced through the substitution of position R1, R2 and R3 by 22 different primary amines. 66 controlled mixtures divided into three different subgroups depending on the R1, R2, R3 defined position. The library was screened on a cellular proliferation assay with HT29 human colon adenocarcinoma cells. The compounds were tested either alone or together with a low dose of Taxol (11 nM). After 72 h in culture, cellular viability was measured with the MTT assay.
Cellular Assays. Combinatorial libraries were screened on a cellular proliferation assay with HT29 human colon adenocarcinoma cells. The compounds were tested either alone or together with low doses of Taxol (nM). After 3 days in culture, cellular viability was measured with an MTT assay (3-4,5-Dimethyl-2-thiazolyl-2,5-diphenyl-2H-tetrazolium bromide). MTT was added at a final concentration of 1 mg/ml in the cell cultures, and after 4 h incubation at 37° C. cell lysis was performed with 15% SDS/DMF (v/v). Spectrophotometric measurement of MTT-formazan at 570 nm and a reference filter at 630 nm allows quantitation of cellular viability. Proliferation inhibition due to the compounds alone was compared to inhibition observed in Taxol plus compound treated cultures.
FIG. 1. Compounds N10-13-10C, N13-13-10C, N4-13-10C and N5-13-10C inhibit HT29 proliferation. Taxol interferes the effect of N10-13-10C and N13-13-10C. (A, B) HT29 cells were grown with peptoid at several concentrations with or without Taxol (11 nM). MTT assay was performed after 72 h of treatment. Proliferation inhibition is shown for N4-13-10C and N13-13-10C (A.), N5-13-10C and N10-13-10C (B.) compared to proliferation of control cells. IC50 value is specified for each peptoid. N10-13-10C and N13-13-10C were purified peptoids by HPLC, corresponding to the major and active fraction. N4-13-10C and N5-13-10C peptoids were not purified by HPLC. […] Proliferation was evaluated by MTT assay after 72 h of treatment. An arbitrary value of 100% was assigned to the densiometric rate of untreated cultures and all other values are depicted relative to that reference. The values are means of six (n=6) replicates.

Structure (SMILES): COc1ccc(CCN(CC(=O)N(CCc2ccccc2)CC(N)=O)C(=O)CNCCc2ccccc2)cc1 [N10-13-10C]
- pRb levels compared to controls (pRb, p21Cip1, p27Kip1): decreased
- IC50 [1]: 40 µM
- Anti-proliferative effect in combination with serial dilutions of Taxol versus Taxol alone [1]: potentated anti-proliferative effect
- Effect of Taxol on the compound's proliferation inhibition [1]: Taxol prevented the compound's effect

Structure (SMILES): COc1ccc(CCNCC(=O)N(CCc2ccc(OC)cc2)CC(=O)N(CCc2ccccc2)CC(N)=O)cc1 [N13-13-10C]
- pRb phosphorylation at Ser780 respect to total pRb levels (pRb, p21Cip1, p27Kip1; HT29, 35 μM, 1-24 h): did not decrease
- p21Cip1 expression (pRb, p21Cip1, p27Kip1; HT29, 24 h and 48 h): Over expression
- p27Kip1 expression (pRb, p21Cip1, p27Kip1; HT29, 24 h and 48 h): Over expression
- pRb levels compared to controls (pRb, p21Cip1, p27Kip1): decreased
- IC50 [1]: 35 µM
- Anti-proliferative effect in combination with serial dilutions of Taxol versus Taxol alone [1]: potentated anti-proliferative effect
- Effect of Taxol on the compound's proliferation inhibition [1]: Taxol prevented the compound's effect
